*1 amine or outer side, *2 acyl side, *3 side chain or, on linkers, in order; H or OH if unused. Where a SMILES comes first, the peptide text is derived from it. The star is where a group is joined. X1 = O=c1nc(N*)ccn1[C@@H]1O[C@H](CO)[C@@H](O)C1(F)F; Suc = O=C(CCC(=O)[*:2])[*:1]

This assay is described as follows: Substrate activity at ENT1 in human BXPC-3 cells assessed as inhibition of cell growth pretreated with ENT1 inhibitor nitrobenzylthioinosine for 5 mins measured after 72 hrs by SRB assay. On the technique in general: The SRB assay estimates cell density from bound dye.
As a reminder, the IC50 is the concentration that inhibits the measured activity by half. Consider `CSCC[C@H](NC(=O)[C@H](NC(=O)[C@@H]1CCCN1C(=O)[C@H](CC(C)C)NC(=O)[C@H](CCCCN)NC(=O)[C@@H](N)Cc1c[nH]c2ccccc12)C(C)C)C(N)=O`, for which the concentration for half-maximal inhibition (IC50) is > 1000 nM.
With H-KLPVMW-NH2 the figure was > 1000 nM; with `CSCC[C@H](NC(=O)[C@@H](NC(=O)[C@@H]1CCCN1C(=O)[C@H](CC(C)C)NC(=O)[C@H](CCCCN)NC(=O)[C@H](Cc1c[nH]c2ccccc12)NC(=O)CCC(=O)Nc1ccn([C@@H]2O[C@H](CO)[C@@H](O)C2(F)F)c(=O)n1)C(C)C)C(N)=O` ({X1-Suc}-WKLPVM-NH2), 380 nM; with `CSCC[C@H](NC(=O)[C@@H](NC(=O)[C@@H]1CCCN1C(=O)[C@H](CC(C)C)NC(=O)[C@H](CCCCN)NC(=O)CCC(=O)Nc1ccn([C@@H]2O[C@H](CO)[C@@H](O)C2(F)F)c(=O)n1)C(C)C)C(=O)N[C@@H](Cc1c[nH]c2ccccc12)C(N)=O` ({X1-Suc}-KLPVMW-NH2), 384 nM.
The value for H-WVPTLK-NH2 was > 1000 nM.
The value for `CC(C)C[C@H](NC(=O)[C@@H](NC(=O)[C@@H]1CCCN1C(=O)[C@@H](NC(=O)[C@H](Cc1c[nH]c2ccccc12)NC(=O)CCC(=O)Nc1ccn([C@@H]2O[C@H](CO)[C@@H](O)C2(F)F)c(=O)n1)C(C)C)[C@@H](C)O)C(=O)N[C@@H](CCCCN)C(N)=O` ({X1-Suc}-WVPTLK-NH2) was 381 nM.

The record behind these values is BindingDB's records for doi:10.1039/c9md00489k (University of Porto, 2020).
